In paper PMC12116161, “An Elastase Inhibitor ShSPI from Centipede Attenuates Bleomycin-Induced Pulmonary Fibrosis” (Toxins, 2025):
“Also recorded” adds a separate entry of the source. Where a SMILES comes first, the peptide text is derived from it. Bridges are numbered along the chain shown (N, C = ends).

Key:
ICR healthy mice [1] = assay: Single administration toxicity study: hematological examination; assay type: in vivo; conditions: single airway spray, day 14 post-dose, EDTA whole blood, automated hematology analyzer, mean ± s
Protocol: (§1) Specific pathogen-free (SIPF) grade ICR healthy mice (with an equal number of males and females, procured from Hunan Slaughter King Laboratory Animal Co., Changsha, China) were randomly divided into four experimental groups and received ShSPI via airway spray at doses of 0 mg/kg (control), 40 mg/kg, 80 mg/kg, or 160 mg/kg in a single administration. Following treatment, the mice were monitored for a 14-day observation period. On the fourteenth day, blood plasma samples were collected for precise measurement and analysis of hematological and biochemical parameters. The specific process is as follows.
On day 14 post-dose, approximately 1.7–2.0 mL of whole blood was collected for hematological and biochemical analyses. Hematological parameters were assessed using an automated hematology analyzer, while biochemical parameters were evaluated with an automated biochemistry analyzer. Prior to blood collection, all mice were fasted for at least 12 h. For hematological analysis, 200 μL of whole blood was immediately transferred into EDTA-containing tubes. For biochemical analysis, 1.5 mL of whole blood was placed into serum separator tubes without anticoagulant and centrifuged to isolate serum.

ICR healthy mice [2] = assay: Single administration toxicity study: overall toxicity and examination of major organs; assay type: in vivo; conditions: single airway spray
Protocol: as §1
At the end of the 14-day observation period, all mice underwent a comprehensive gross anatomical examination. Key organs, including the heart, liver, spleen, lungs, kidneys, brain, and gastrointestinal tract, were evaluated for changes in surface color, morphological structure, size, and tissue texture.

CC[C@H](C)[C@@H]1NC(=O)[C@H](C)NC(=O)[C@@H]2CCCN2C(=O)[C@@H]2CSSC[C@H](NC(=O)[C@H](CO)NC(=O)[C@H](CC(N)=O)NC(=O)[C@H](CO)NC(=O)[C@H](Cc3ccc(O)cc3)NC(=O)[C@H](CCSC)NC(=O)[C@H](CCCNC(=N)N)NC(=O)CNC(=O)[C@H](Cc3ccccc3)NC(=O)[C@H](CCC(=O)O)NC(=O)[C@H](CC(=O)O)NC(=O)[C@H](Cc3ccccc3)NC(=O)[C@H](C(C)C)NC(=O)[C@@H]3CCCN3C(=O)[C@H](CCC(N)=O)NC(=O)[C@H](Cc3ccc(O)cc3)NC1=O)C(=O)N[C@@H](CCC(=O)O)C(=O)N[C@@H](CCSC)C(=O)N[C@@H](CCC(N)=O)C(=O)N[C@@H](CCCNC(=N)N)C(=O)N[C@@H](C)C(=O)N[C@@H](CCCNC(=N)N)C(=O)N[C@H](C(=O)N[C@@H](CC(C)C)C(=O)N[C@@H](CCCNC(=N)N)C(=O)NCC(=O)O)CSSC[C@H](N)C(=O)N1CCC[C@H]1C(=O)N[C@@H](CCC(N)=O)C(=O)N[C@@H](C(C)C)C(=O)N2 [ShSPI] (H-CPQVCPAIYQPVFDEFGRMYSNSCEMQRARCLRG-OH; disulfide 1-31, 5-24; N-terminus and C-terminus assumed)
Lym (ICR healthy mice [1]; 40 mg/kg ShSPI, n = 6): 6.40 ± 2.49 10^9/L
Lym% (ICR healthy mice [1]; 40 mg/kg ShSPI, n = 6): 78.20 ± 2.18%
MCH (ICR healthy mice [1]; 40 mg/kg ShSPI, n = 6): 15.86 ± 0.43 pg
MCHC (ICR healthy mice [1]; 40 mg/kg ShSPI, n = 6): 333.50 ± 3.98 g/L
MCV (ICR healthy mice [1]; 40 mg/kg ShSPI, n = 6): 47.56 ± 0.95 fL
MPV (ICR healthy mice [1]; 40 mg/kg ShSPI, n = 6): 5.35 ± 0.18 fL
Mon (ICR healthy mice [1]; 40 mg/kg ShSPI, n = 6): 0.28 ± 0.13 10^9/L
Mon% (ICR healthy mice [1]; 40 mg/kg ShSPI, n = 6): 3.35 ± 0.74%
Neu (ICR healthy mice [1]; 40 mg/kg ShSPI, n = 6): 1.41 ± 0.69 10^9/L
Neu% (ICR healthy mice [1]; 40 mg/kg ShSPI, n = 6): 16.78 ± 1.90%
PCT (ICR healthy mice [1]; 40 mg/kg ShSPI, n = 6): 0.71 ± 0.04%
PDW (ICR healthy mice [1]; 40 mg/kg ShSPI, n = 6): 15.21 ± 0.17
PLT (ICR healthy mice [1]; 40 mg/kg ShSPI, n = 6): 1326.50 ± 494.34 10^9/L
RBC (ICR healthy mice [1]; 40 mg/kg ShSPI, n = 6): 7.78 ± 0.23 10^12/L
RDW-CV (ICR healthy mice [1]; 40 mg/kg ShSPI, n = 6): 12.70 ± 0.76%
RDW-SD (ICR healthy mice [1]; 40 mg/kg ShSPI, n = 6): 26.68 ± 1.26 fL
WBC (ICR healthy mice [1]; 40 mg/kg ShSPI, n = 6): 8.22 ± 3.30 10^9/L
Bas (ICR healthy mice [1]; 80 mg/kg ShSPI, n = 6): 0.03 ± 0.04 10^9/L
Bas% (ICR healthy mice [1]; 80 mg/kg ShSPI, n = 6): 0.56 ± 0.60%
Eos (ICR healthy mice [1]; 80 mg/kg ShSPI, n = 6): 0.22 ± 0.20 10^9/L
Eos% (ICR healthy mice [1]; 80 mg/kg ShSPI, n = 6): 3.10 ± 2.15%
HCT (ICR healthy mice [1]; 80 mg/kg ShSPI, n = 6): 35.93 ± 2.11%
HGB (ICR healthy mice [1]; 80 mg/kg ShSPI, n = 6): 120.33 ± 6.83 g/L
Lym (ICR healthy mice [1]; 80 mg/kg ShSPI, n = 6): 4.66 ± 1.68 10^9/L
Lym% (ICR healthy mice [1]; 80 mg/kg ShSPI, n = 6): 68.93 ± 6.78%
MCH (ICR healthy mice [1]; 80 mg/kg ShSPI, n = 6): 16.08 ± 0.40 pg
MCHC (ICR healthy mice [1]; 80 mg/kg ShSPI, n = 6): 335.33 ± 6.28 g/L
MCV (ICR healthy mice [1]; 80 mg/kg ShSPI, n = 6): 47.95 ± 0.38 fL
MPV (ICR healthy mice [1]; 80 mg/kg ShSPI, n = 6): 5.48 ± 0.48 fL
Mon (ICR healthy mice [1]; 80 mg/kg ShSPI, n = 6): 0.38 ± 0.05 10^9/L
Neu (ICR healthy mice [1]; 80 mg/kg ShSPI, n = 6): 1.35 ± 0.40 10^9/L
Neu% (ICR healthy mice [1]; 80 mg/kg ShSPI, n = 6): 21.23 ± 5.92%
PCT (ICR healthy mice [1]; 80 mg/kg ShSPI, n = 6): 0.69 ± 0.09%
PDW (ICR healthy mice [1]; 80 mg/kg ShSPI, n = 6): 15.33 ± 0.10
PLT (ICR healthy mice [1]; 80 mg/kg ShSPI, n = 6): 1272 ± 206.81 10^9/L
RBC (ICR healthy mice [1]; 80 mg/kg ShSPI, n = 6): 7.49 ± 0.34 10^12/L
RDW-CV (ICR healthy mice [1]; 80 mg/kg ShSPI, n = 6): 12.18 ± 0.22%
RDW-SD (ICR healthy mice [1]; 80 mg/kg ShSPI, n = 6): 25.75 ± 1.03 fL
WBC (ICR healthy mice [1]; 80 mg/kg ShSPI, n = 6): 6.66 ± 2.04 10^9/L
Mon% (ICR healthy mice [1]; 80 mg/kg ShSPI, n = 6, * p < 0.05 vs blank control): 6.16 ± 1.76 * %
Bas (ICR healthy mice [1]; 160 mg/kg ShSPI, n = 6): 0.02 ± 0.01 10^9/L
Bas% (ICR healthy mice [1]; 160 mg/kg ShSPI, n = 6): 0.20 ± 0.12%
Eos (ICR healthy mice [1]; 160 mg/kg ShSPI, n = 6): 0.21 ± 0.19 10^9/L
Eos% (ICR healthy mice [1]; 160 mg/kg ShSPI, n = 6): 1.85 ± 1.23%
HCT (ICR healthy mice [1]; 160 mg/kg ShSPI, n = 6): 37.81 ± 1.30%
HGB (ICR healthy mice [1]; 160 mg/kg ShSPI, n = 6): 126.66 ± 4.36 g/L
Lym (ICR healthy mice [1]; 160 mg/kg ShSPI, n = 6): 8.63 ± 2.79 10^9/L
Lym% (ICR healthy mice [1]; 160 mg/kg ShSPI, n = 6): 75.90 ± 6.54%
MCH (ICR healthy mice [1]; 160 mg/kg ShSPI, n = 6): 16.05 ± 0.40 pg
MCHC (ICR healthy mice [1]; 160 mg/kg ShSPI, n = 6): 335.33 ± 4.13 g/L
MCV (ICR healthy mice [1]; 160 mg/kg ShSPI, n = 6): 47.86 ± 65 fL
MPV (ICR healthy mice [1]; 160 mg/kg ShSPI, n = 6): 5.21 ± 0.21 fL
Mon (ICR healthy mice [1]; 160 mg/kg ShSPI, n = 6): 0.42 ± 0.21 10^9/L
Mon% (ICR healthy mice [1]; 160 mg/kg ShSPI, n = 6): 3.58 ± 0.74%
Neu (ICR healthy mice [1]; 160 mg/kg ShSPI, n = 6): 2.23 ± 1.28 10^9/L
Neu% (ICR healthy mice [1]; 160 mg/kg ShSPI, n = 6): 18.46 ± 5.30%
PCT (ICR healthy mice [1]; 160 mg/kg ShSPI, n = 6): 0.78 ± 0.07%
PDW (ICR healthy mice [1]; 160 mg/kg ShSPI, n = 6): 15.21 ± 0.07
PLT (ICR healthy mice [1]; 160 mg/kg ShSPI, n = 6): 1511.2 ± 178.44 10^9/L
RBC (ICR healthy mice [1]; 160 mg/kg ShSPI, n = 6): 7.90 ± 0.31 10^12/L
RDW-CV (ICR healthy mice [1]; 160 mg/kg ShSPI, n = 6): 12.83 ± 0.74%
RDW-SD (ICR healthy mice [1]; 160 mg/kg ShSPI, n = 6): 27.20 ± 1.81 fL
WBC (ICR healthy mice [1]; 160 mg/kg ShSPI, n = 6): 11.5 ± 4.13 10^9/L
histopathological examination of major organs (ICR healthy mice [2]; doses up to 160 mg/kg, end of 14-day observation): no pathological changes
toxicity after single administration (ICR healthy mice [2]; escalating doses up to 160 mg/kg, 14-day observation): no detectable toxicity observed; also recorded: did not show significant toxic effects
